Assay results from ChEMBL document CHEMBL4330111 (Bioorg Med Chem Lett, 2019).

Key:
Vero = assay: Cytotoxicity against African green monkey Vero cells after 48 hrs by MTT assay; type: cell-based; settings: chlorocebus sabaeus
[1] = tested on: Mycobacterium tuberculosis; assay: microbe, parasite or virus in culture; settings: H37Rv, 144 h
Description: Antitubercular activity against Mycobacterium tuberculosis H37Rv after 6 days by alamar blue reagent based assay

Acinetobacter baumannii = assay: Antibacterial activity against Acinetobacter baumannii ATCC 19606; type: functional; settings: ATCC 19606 = CIP 70.34 = JCM 6841
[2] = Antibacterial activity against Enterobacter cloacae ATCC 13047; type: functional, Enterobacter cloacae subsp. cloacae
Enterococcus faecium = assay: Antibacterial activity against Enterococcus faecium NCTC 7171; type: functional
Klebsiella pneumoniae = assay: Antibacterial activity against Klebsiella pneumoniae BAA 2146; type: functional; settings: ATCC BAA-2146
Pseudomonas aeruginosa = assay: Antibacterial activity against Pseudomonas aeruginosa HER1018; type: functional
Staphylococcus aureus = assay: Antibacterial activity against Staphylococcus aureus ATCC 43300; type: functional
[3] = Half life in mouse liver microsomes; type: ADME, Microsome
[4] = Kinetic solubility of the compound in pH 7.4 phosphate buffered saline; type: physicochemical; settings: for solubility kinetic: phosphate buffered saline, read-out: Kinetic_solubility; for Kinetic_solubility: buffer
[5] = Cmax in CD-1 mouse at 25 mg/kg, po administered as single dose by LC-MS/MS analysis; type: ADME, organism-based; design: dose 25 mg/kg, route oral; settings: in vivo
[6] = AUC (0 to 5 hrs) in CD-1 mouse at 25 mg/kg, po administered as single dose by LC-MS/MS analysis; type: ADME, organism-based; design: dose 25 mg/kg, route oral; settings: in vivo
[7] = Intrinsic clearance in mouse liver microsomes assessed per mg protein; type: ADME, Microsome
[8] = Ratio of drug level in CD-1 mouse lungs to plasma at 25 mg/kg, po administered as single dose measured after 5 hrs by LC-MS/MS analysis; type: ADME, organism-based; settings: lung/plasma

SMILES | CC50 (Vero) [µM] | MIC [1] | also measured
O=C(NCc1ccccc1Cl)c1ccc([N+](=O)[O-])o1 | 11 | 6.2 µM | 
O=C(NCc1ccccc1)c1ccc([N+](=O)[O-])o1 | 13 | 0.39 µM | MIC (Acinetobacter baumannii): > 200 µM; MIC [2]: > 200 µM; MIC (Enterococcus faecium): > 200 µM; MIC (Klebsiella pneumoniae): > 200 µM; MIC (Pseudomonas aeruginosa): > 200 µM; MIC (Staphylococcus aureus): > 200 µM; t1/2 [3]: 28.5 min; solubility kinetic [4]: > 500 µM; Cmax ([5]; CD-1, mouse, read-out: Cmax): 1160 nM; AUC [6]: 547 ng·h/mL; Intrinsic clearance [7]: 24.3 µL/min
O=C(Nc1ccc(Cl)cc1)c1ccc([N+](=O)[O-])o1 | 1.5 | 0.78 µM | 
O=C(Nc1ccccc1)c1ccc([N+](=O)[O-])o1 | 6.7 | 3.1 µM | 
O=C(NCCc1ccccc1)c1ccc([N+](=O)[O-])o1 | 12 | 3.1 µM | 
CC(NC(=O)c1ccc([N+](=O)[O-])o1)c1ccccc1 (stereo unspecified) | 24 | 6.2 µM | 
CC(C)(NC(=O)c1ccc([N+](=O)[O-])o1)c1ccccc1 |  | 0.78 µM | t1/2 [3]: 74.5 min; Kinetic_solubility [4]: 388 µM; Cmax ([5]; CD-1, mouse, read-out: Cmax): 1620 nM; AUC [6]: 717 ng·h/mL; Intrinsic clearance [7]: 9.3 µL/min
O=C(NC(=O)c1ccc([N+](=O)[O-])o1)c1ccccc1 | 3 | 25 µM | 
O=C(Nc1cc2ccccc2o1)c1ccc([N+](=O)[O-])o1 | 40 | 0.2 µM | 
CC(C)(NC(=O)c1ccc([N+](=O)[O-])o1)c1ccc(Oc2ccc(Cl)cc2)cc1 | 67 | 0.39 µM | 
CC(C)(C)C(NC(=O)c1ccc([N+](=O)[O-])o1)c1ccccc1 (stereo unspecified) | 10 | 25 µM | 
O=C(NCc1ccc(Oc2ccc(Cl)cc2)cc1)c1ccc([N+](=O)[O-])o1 |  | 0.062 µM | 
O=C(NCCCc1ccc(Cl)cc1)c1ccc([N+](=O)[O-])o1 | 19 | 0.39 µM | 
O=C(NCc1cccc(Cl)c1)c1ccc([N+](=O)[O-])o1 | 5.5 | 0.78 µM | 
CC(C)(NC(=O)c1ccc([N+](=O)[O-])o1)c1ccc(COc2ccccc2OC(F)(F)F)cc1 | 13 | 0.098 µM | 
CC(C)(NC(=O)c1ccc([N+](=O)[O-])o1)c1ccc(COc2ccc(C(F)(F)F)cc2)cc1 | 7 | 0.39 µM | 
CC(C)C(NC(=O)c1ccc([N+](=O)[O-])o1)c1ccccc1 (stereo unspecified) | 22 | 6.2 µM | 
COc1ccc(OCc2ccc(C(C)(C)NC(=O)c3ccc([N+](=O)[O-])o3)cc2)cc1 | > 120 | 0.078 µM | MIC (Acinetobacter baumannii): > 120 µM; MIC [2]: > 120 µM; MIC (Enterococcus faecium): > 120 µM; MIC (Klebsiella pneumoniae): > 120 µM; MIC (Pseudomonas aeruginosa): > 120 µM; MIC (Staphylococcus aureus): > 120 µM; t1/2 [3]: 45 min; solubility kinetic [4]: < 0.06 µM; Cmax ([5]; mouse): 5 ng/mL; AUC [6]: 11 ng·h/mL; Intrinsic clearance [7]: 15.4 µL/min
COc1ccccc1OCc1ccc(C(C)(C)NC(=O)c2ccc([N+](=O)[O-])o2)cc1 |  | 0.019 µM | MIC (Acinetobacter baumannii): > 120 µM; MIC [2]: > 120 µM; MIC (Enterococcus faecium): > 120 µM; MIC (Klebsiella pneumoniae): > 120 µM; MIC (Pseudomonas aeruginosa): > 120 µM; MIC (Staphylococcus aureus): > 120 µM; t1/2 [3]: 11.6 min; Kinetic_solubility [4]: 0.182 µM; Cmax ([5]; CD-1, mouse, read-out: Cmax): 210 nM; AUC [6]: 210 ng·h/mL; Kp at 5 h [8]: 0.04 to 0.09; Intrinsic clearance [7]: 59.8 µL/min
CC(C)(NC(=O)c1ccc([N+](=O)[O-])o1)c1ccc(C#N)cc1 | 83 | > 10 µM | 
CC(C)(NC(=O)c1ccc([N+](=O)[O-])o1)c1ccc(F)cc1 | 42 | 0.78 µM | 
CC(C)(NC(=O)c1ccc([N+](=O)[O-])o1)c1ccc(C(F)(F)F)cc1 | > 150 | 0.78 µM | 

SMILES | CC50 (Vero) [µM] | MIC [1] | also measured
CC(C)(NC(=O)c1ccc([N+](=O)[O-])o1)c1ccc(COc2ccc(OC(F)(F)F)cc2)cc1 | 6.7 | 0.39 µM | 
CC(C)(NC(=O)c1ccc([N+](=O)[O-])o1)c1ccc(Cl)cc1 |  | 0.15 µM | 
COc1ccc(C(C)(C)NC(=O)c2ccc([N+](=O)[O-])o2)cc1 |  | 0.078 µM | 
O=C(NCCCc1ccccc1)c1ccc([N+](=O)[O-])o1 | 11 | 0.78 µM | 
CC(C)(NC(=O)c1ccc([N+](=O)[O-])o1)c1ccc(COc2ccc(Cl)cc2)cc1 |  | 0.12 µM | Cmax ([5]; CD-1, mouse, read-out: Cmax): 22 nM; AUC [6]: 34 ng·h/mL
CN(C)c1ccc(C(C)(C)NC(=O)c2ccc([N+](=O)[O-])o2)cc1 | 79 | 0.2 µM | 
O=C(NCc1ccc(Cl)cc1)c1ccc([N+](=O)[O-])o1 |  | 0.098 µM | 
CC(C)(NC(=O)c1ccc([N+](=O)[O-])o1)c1ccc(OC(F)(F)F)cc1 | 70 | 0.2 µM | 
O=C(Nc1cc2ccccc2s1)c1ccc([N+](=O)[O-])o1 | 38 | 0.078 µM | t1/2 [3]: 1.87 min; Kinetic_solubility [4]: 5.61 µM; Intrinsic clearance [7]: 371 µL/min
CC(C)(NC(=O)c1ccc([N+](=O)[O-])o1)c1ccc(CN2CCOCC2)cc1 | 130 | > 10 µM | 
O=C(NCCc1ccc(Cl)cc1)c1ccc([N+](=O)[O-])o1 | 5.4 | 0.39 µM | 
O=C(NC1(c2ccccc2)CC1)c1ccc([N+](=O)[O-])o1 | 46 | 6.2 µM | 
O=C(Nc1ccc2ccccc2c1)c1ccc([N+](=O)[O-])o1 | > 150 | 0.0078 µM | t1/2 [3]: 2.13 min; Kinetic_solubility [4]: 1.5 µM; Intrinsic clearance [7]: 325 µL/min
O=C(NCc1ccc(COc2ccc(Cl)cc2)cc1)c1ccc([N+](=O)[O-])o1 |  | 0.039 µM | 
O=C(NC(c1ccccc1)C1CC1)c1ccc([N+](=O)[O-])o1 (stereo unspecified) | 22 | 12 µM | 
O=C(NCc1ccc(CN2CCOCC2)cc1)c1ccc([N+](=O)[O-])o1 | 18 | 1.2 µM | 
CC(C)(NC(=O)c1ccc([N+](=O)[O-])o1)c1ccc(-c2ccc(Cl)cc2)cc1 | > 140 | 25 µM | 
CC(C)(NC(=O)c1ccc([N+](=O)[O-])o1)c1ccc(COc2ccccc2C(F)(F)F)cc1 | 14 | 0.31 µM | 
O=C(NCc1ccc(-c2ccc(Cl)cc2)cc1)c1ccc([N+](=O)[O-])o1 | 4.4 | 0.12 µM | 
CC(C)(C)c1ccc(C(C)(C)NC(=O)c2ccc([N+](=O)[O-])o2)cc1 | > 150 | 0.39 µM | 
CC(C)(NC(=O)c1ccc([N+](=O)[O-])o1)c1ccc(COc2ccccc2Cl)cc1 | 30 | 0.31 µM | 
CO[C@H]1/C=C/O[C@@]2(C)Oc3c(C)c(O)c4c(O)c(c(/C=N/N5CCN(C)CC5)c(O)c4c3C2=O)NC(=O)/C(C)=C\C=C\[C@H](C)[C@H](O)[C@@H](C)[C@@H](O)[C@@H](C)[C@H](OC(C)=O)[C@@H]1C [RIFAMPIN] |  | 0.0125 to 0.05 µg/mL | 
